Experimental data from publication PMC12040169 (PLOS Biology, 2025).

Assay: in vitro
Conditions: human, hela cells, % viability
With `Cc1ccc(S(=O)(=O)Nc2nc3ccccc3nc2Nc2ccc(C(=O)O)cc2)cc1C` [CBK300516] the viability at 28.5 h, 10 µM was 91.5%. With `O=C(Nc1ccccc1C(F)(F)F)c1ccc(-n2cnnn2)cc1` [CBK300521] the viability at 28.5 h, 10 µM was 86.8%. For `O=C(Nc1ncc(Cc2ccc(F)cc2)s1)c1ccc(-c2ccc(F)cc2)o1` [CBK300522], the viability at 28.5 h, 10 µM was 99.5%. In the case of `Cc1cccc(C)c1NC(=O)Nc1ccc(F)cc1F` [CBK300526], the viability at 28.5 h, 10 µM is reported as 90.2%. Work on `CSc1cccc(NC(=O)Nc2ccc3c(c2)OCCO3)c1` [CBK300527] yielded a viability at 28.5 h, 10 µM of 104%. In the case of `CCCCc1ccc(-c2ccc(-c3cc(C(=O)O)c4cc(C)ccc4n3)o2)cc1` [CBK300528], the viability at 28.5 h, 10 µM is reported as 94%. For `O=C(c1ccccc1)c1ccc2n1CCC2C(=O)Nc1ccccc1F` (centres unmarked) [CBK300530], the viability at 28.5 h, 10 µM was 90.5%. Work on `CC1CCc2c(C(=O)Nc3ncc(Cc4ccccc4)s3)csc2C1` (centres unmarked) [CBK300531] yielded a viability at 28.5 h, 10 µM of 94.6%. In the case of `COc1cccc(Cn2c(=O)c3sccc3n(CC(=O)NCc3ccc(C)cc3)c2=O)c1` [CBK300533], the viability at 28.5 h, 10 µM is reported as 80.8%. Compound `COc1ccc(CNC(=O)Cn2nc3c(SCc4ccc(Cl)cc4)nccn3c2=O)cc1` [CBK300541] has a viability at 28.5 h, 10 µM of 90.5%. With `COc1ccc(-c2ccc(-c3cc(C(=O)O)c4ccccc4n3)o2)cc1` [CBK300542] the viability at 28.5 h, 10 µM was 75.5%. With `CCc1ccc(-c2ccc(-c3cc(C(=O)O)c4cc(Br)ccc4n3)o2)cc1` [CBK300543] the viability at 28.5 h, 10 µM was 90.6%. Compound `CC(=O)N1CCN(c2ccc(NC(=O)C3C(C(=O)O)C3(C)C)cc2)CC1` (centres unmarked) [CBK300545] has a viability at 28.5 h, 10 µM of 88.6%. Compound `O=S(=O)(O)c1cccc2cccc(I)c12` [CBK301197N] has a viability at 28.5 h, 10 µM of 89.1%. `O=[N+]([O-])c1ccc(Cc2cc[n+](-c3nc4ccccc4nc3[N-]S(=O)(=O)c3ccc([N+](=O)[O-])cc3)cc2)cc1` [CBK301201] gave a viability at 28.5 h, 10 µM of 84.3%. `OCCN(CC#CC(O)(c1ccccc1)c1cccc(F)c1)CCO` (centres unmarked) [CBK301210C] showed a viability at 28.5 h, 10 µM of 91.2%. `CCc1ccc(CN2CCN(C(=O)c3ccncc3)CC2)cc1` [CBK301211G] gave a viability at 28.5 h, 10 µM of 92.7%. Work on `COc1cc(C(=O)N2CCN(Cc3c[nH]c4ccccc34)CC2)cc(OC)c1OC` [CBK301212G] yielded a viability at 28.5 h, 10 µM of 77.7%. In the case of `Brc1ccc2c(c1)[C@H]1C=CC[C@H]1[C@@H](c1ccccc1)N2` [CBK303238], the viability at 28.5 h, 10 µM is reported as 89%. `O=c1[nH]c2c(c(=O)[nH]1)[C@H]1[C@H](O)[C@H](O)C[C@H]1[C@@H](c1ccccc1)N2` [CBK303239] gave a viability at 28.5 h, 10 µM of 88.1%. In the case of `O=C(O)[C@H]1Nc2ccc(Br)cc2[C@H]2[C@H](O)[C@H](O)C[C@H]21` [CBK303242], the viability at 28.5 h, 10 µM is reported as 115%. Compound `CC(C)(C)C1=CC2=NC3(CCC3)[C@@H]3C[C@@H](O)[C@@H](O)[C@@H]3N2O1` [CBK303243] has a viability at 28.5 h, 10 µM of 104%. For `CC(C)(C)C1=CC2=NC3(CCOCC3)[C@@H]3C[C@@H](O)[C@@H](O)[C@@H]3N2O1` [CBK303244], the viability at 28.5 h, 10 µM was 90.1%. Compound `CC(C)(C)C1=CC2=NC3(CCCC3)[C@@H]3C[C@@H](O)[C@@H](O)[C@@H]3N2O1` [CBK303245] has a viability at 28.5 h, 10 µM of 95.1%. In the case of `CC(C)(C)C1=CC2=NC3(CCS(=O)(=O)CC3)[C@@H]3C[C@@H](O)[C@@H](O)[C@@H]3N2O1` [CBK303247], the viability at 28.5 h, 10 µM is reported as 92%. Compound `Oc1nc(O)c2c(n1)NC1(CCC1)[C@@H]1C[C@@H](O)[C@@H](O)[C@H]21` [CBK303249] has a viability at 28.5 h, 10 µM of 91.4%. `Cn1c2c(c(=O)n(C)c1=O)[C@H]1[C@H](O)[C@H](O)C[C@H]1C1(CCC1)N2` [CBK303250] gave a viability at 28.5 h, 10 µM of 93.6%. Compound `Cc1nsc2c1[C@H]1[C@H](O)[C@H](O)C[C@H]1C1(CCC1)N2` [CBK303258] has a viability at 28.5 h, 10 µM of 100%. `CC(C)(C)C1=CC2=NC3(CCC3)C3C[C@@](C)(O)[C@@H](O)[C@@H]3N2O1` (some centres unmarked) [CBK303263] showed a viability at 28.5 h, 10 µM of 112%. `Cn1c2c(c(=O)n(C)c1=O)[C@@H]1C(C[C@](O)(COCc3ccccc3)[C@H]1O)C1(CCC1)N2` (some centres unmarked) [CBK303265] showed a viability at 28.5 h, 10 µM of 116%. `Cc1noc2c1[C@H]1[C@H](O)[C@H](O)C[C@H]1C1(CCC1)N2` [CBK303266] gave a viability at 28.5 h, 10 µM of 111%. For `Cc1ccc(CC2CCCN(C(=O)NCc3cnn(C)c3)C2)cc1` (centres unmarked) [CBK303990], the viability at 28.5 h, 10 µM was 91.8%. With `CNS(=O)(=O)c1cccc(C(=O)N(C)Cc2ccsc2)c1` [CBK303993] the viability at 28.5 h, 10 µM was 113%. With `CC1CN(Cc2cccc(CNc3ncccc3C#N)c2)CCO1` (centres unmarked) [CBK303994] the viability at 28.5 h, 10 µM was 95.7%. `O=C(CN1CCn2ccnc2C1)N(Cc1ccccc1F)C1CC1` [CBK303995] gave a viability at 28.5 h, 10 µM of 89.6%. Work on `CCn1cnnc1C1CCN(C(=O)c2ccc(C)c(Cl)c2)CC1` [CBK303997] yielded a viability at 28.5 h, 10 µM of 94.9%. For `Cc1nnc(CN(C)C2CCN(CCCc3ccccc3)C2)n1C` (centres unmarked) [CBK304000], the viability at 28.5 h, 10 µM was 115%. `N#CCCN(Cc1cccnc1)C(=O)Cc1noc2ccccc12` [CBK304001] showed a viability at 28.5 h, 10 µM of 113%. Work on `CCc1nc(CC(=O)NC(C)C(O)c2ccc(F)cc2)cs1` (centres unmarked) [CBK304003] yielded a viability at 28.5 h, 10 µM of 86.7%. In the case of `Cc1nc(C)n(CC2CCCN2Cc2cn3ccccc3c2C#N)n1` (centres unmarked) [CBK304006], the viability at 28.5 h, 10 µM is reported as 91%. For `Cc1nc(C)n(CC2CCCN(Cc3cn4c(C)cccc4n3)C2)n1` (centres unmarked) [CBK304007], the viability at 28.5 h, 10 µM was 97.7%. `COCCCNC(=O)CN1CCCCC1Cn1nc(C)cc1C` (centres unmarked) [CBK304009] showed a viability at 28.5 h, 10 µM of 104%. `Cc1nc(S(=O)(=O)Cc2nccn2C)n(CC2CCCO2)c1C` (centres unmarked) [CBK304012] gave a viability at 28.5 h, 10 µM of 87%. With `c1ccc(C(NCc2cnc(-c3ncccn3)s2)C2CCC2)cc1` (centres unmarked) [CBK304013] the viability at 28.5 h, 10 µM was 81.5%. Work on `N#CCCN(Cc1ccco1)C(=O)c1cccc(NC(=O)C2CC2)c1` [CBK304014] yielded a viability at 28.5 h, 10 µM of 99.5%. Compound `Cc1ccn2ncc(C(=O)N3CCCCCC3c3ccco3)c2n1` (centres unmarked) [CBK304015] has a viability at 28.5 h, 10 µM of 111%. In the case of `CCc1nc2ccccc2n1CC(=O)N(C)C(C)c1cccnc1` (centres unmarked) [CBK304017], the viability at 28.5 h, 10 µM is reported as 110%. Compound `Cc1c(C(C)NCC2CCCC2O)cnn1-c1ccc(C#N)cc1` (centres unmarked) [CBK304019] has a viability at 28.5 h, 10 µM of 94.5%. With `CCOC(=O)C1CCCN(Cc2cc(F)cc(C(C)=O)c2O)C1` (centres unmarked) [CBK304020] the viability at 28.5 h, 10 µM was 87.1%. `N#Cc1ccncc1NCc1ccccc1CN1CCCC1CO` (centres unmarked) [CBK304021] gave a viability at 28.5 h, 10 µM of 85%. Work on `c1ccc(C(NCc2cnc(C3CCC3)s2)C2CCCC2)nc1` (centres unmarked) [CBK304022] yielded a viability at 28.5 h, 10 µM of 88.6%. `CN(C(=O)NC1CCCc2c1cnn2CCO)c1ccccc1F` (centres unmarked) [CBK304024] showed a viability at 28.5 h, 10 µM of 109%. In the case of `Cn1c(C2CC2)nc2c1CCN(Cc1cc(=O)n(C)c(=O)n1C)C2` [CBK304025], the viability at 28.5 h, 10 µM is reported as 115%. Compound `Cc1nc(C)n(CC2CCCN(Cc3cn4ccccc4n3)C2)n1` (centres unmarked) [CBK304028] has a viability at 28.5 h, 10 µM of 88.3%. Compound `Cc1nnc(SCCN2CCOC2=O)n1CCc1cccs1` [CBK304029] has a viability at 28.5 h, 10 µM of 93.7%. For `CCC(c1ccc(F)cc1F)N1CCN(Cc2nc(C)no2)CC1` (centres unmarked) [CBK304032], the viability at 28.5 h, 10 µM was 103%. With `Cc1cccn2cc(CCNC(=O)N3CCOCC3C3CC3)nc12` (centres unmarked) [CBK304033] the viability at 28.5 h, 10 µM was 104%. With `CCOC(=O)c1cnn(C2CCCN(Cc3cncs3)C2)c1` (centres unmarked) [CBK304039] the viability at 28.5 h, 10 µM was 94.7%. Work on `Cc1cc(C)n(CC2CCCCN2C(=O)COc2cccnc2)n1` (centres unmarked) [CBK304040] yielded a viability at 28.5 h, 10 µM of 105%. Compound `Cc1cnn(CC2CCCCN2CC(=O)NCc2ccccn2)c1` (centres unmarked) [CBK304041] has a viability at 28.5 h, 10 µM of 110%. `CCOC(=O)c1cnn(C2CCCN(Cc3cn(C)nc3C)C2)c1` (centres unmarked) [CBK304044] gave a viability at 28.5 h, 10 µM of 89.2%. `CCNc1ncc(C(=O)N2CCC(Nc3cccnc3)CC2)s1` [CBK304047] showed a viability at 28.5 h, 10 µM of 99.6%.
